What was measured:
[1] = tested on: insulin-like growth factor (IGF-1); assay: IGF-1 production: peptide No. 2 versus reverse sequence and constituent amino acids (Example 9); format: in vivo; details: rats, single oral dose 10 mg/kg, 45 minutes, groups No. 2, R-No. 2, AA, control
Method: The synthetic peptide No. 2, a peptide consisting of a reverse sequence of the peptide No. 2 (SEQ ID NO: 3; herein also called R-No. 2), constituent amino acids of the synthetic peptide No. 2 (herein also called AA), or water for injection (control) was orally administered as a single dose to male Wistar rats at the age of four weeks by using a gastric tube (n=6 in each group). The dosage of the synthetic peptide, the reverse sequence peptide and the constituent amino acids was 10 mg/kg. At 45 minutes after administration, the rats were euthanized under anesthesia, and the liver was harvested. The concentration of IGF-1 in the serum and liver was measured by ELISA (Mouse/Rat IGF-I Quantikine ELISA Kit (MG100), R&D Systems, Inc.). For the serum IGF-1 concentration, the difference (Δ value) before and after administration was also determined.

[2] = tested on: mouse chondrogenic cell line ATDC5; assay: Proliferation-promoting activity on chondrogenic cells (BrdU uptake); format: cell-based; details: ATDC5, 24 hours, relative to absence of sample = 100, FIGS. 5 and 6
Method: The mouse chondrogenic cell line ATDC5 (RCB0565) was cultured in DMEM/F-12 medium supplemented with 5% FBS, 3×10-8 M sodium selenite and 5 μg/mL human transferrin at 37° C. in 5% CO2-95% air to subconfluence. The cells were collected by trypsinization. The collected cells were suspended at 5×10^4 cells/mL in fresh DMEM/F-12 medium with the same supplements. One hundred microliters of the cell suspension was seeded in each well of a 96-well plate, and precultured at 37° C. in 5% CO2-95% air. On the next day, the medium was replaced with DMEM/F-12 medium containing the sample dissolved therein with a supplement of 3×10^−8 M sodium selenite and 5 μg/mL human transferrin. The cells were further cultured for 24 hours. The proliferative activity of the chondrogenic cells was assessed by measuring the amount of BrdU uptake. The proliferation-promoting activity of the sample on the chondrogenic cells was expressed as a value relative to the proliferation level of the cells in the absence of the sample, which was taken as 100.

[3] = tested on: insulin-like growth factor (IGF-1); assay: Promoting effect on IGF-1 production after single oral dose (Example 8); format: in vivo; details: rats
Method: The synthetic peptide No. 1 or No. 2 or water for injection (control) was orally administered as a single dose to male Wistar rats at the age of four weeks by using a gastric tube (n=6 in each group). The dosage of the synthetic peptide No. 1 or No. 2 was 10 mg/kg. The blood was collected from the tail before administration and 30, 45, 60 and 90 minutes after administration, and the serum was separated. At 120 minutes after administration, the whole blood was collected from the abdominal vena cava under anesthesia and the rats were euthanized (see FIG. 25). The concentration of IGF-1 in the serum was measured by ELISA (Mouse/Rat IGF-I Quantikine ELISA Kit (MG100), R&D Systems, Inc.).
(§1) The concentration dependence of the synthetic peptides was examined. The synthetic peptide No. 1 was orally administered as a single dose of 1, 5 or 10 mg/kg (n=6 in each group). At 60 minutes after administration, the rats were euthanized under anesthesia, and the liver was harvested. The concentration of IGF-1 in the serum and liver was measured. For the serum IGF-1 concentration, the difference (Δ value) before and after administration was also determined.
as §1, with “The” for “The concentration dependence of the synthetic peptides was examined. The”, “No. 2” for “No. 1”, “administered to the rats” for “administered”, “of 0.1, 1” for “of 1, 5”, “At 45” for “At 60”

[4] = tested on: mouse osteoblast-like cell line MC3T3-E1 Subclone-4; assay: Proliferation-promoting activity on osteoblastic precursor cells (BrdU uptake); format: cell-based
Method: The mouse osteoblast-like cell line MC3T3-E1 Subclone-4 (ATCC No. CRL-2593) was cultured in α-MEM medium supplemented with 10% FBS at 37° C. in 5% CO2-95% air to subconfluence. The cells were collected by trypsinization. The collected cells were suspended at 5×10^4 cells/mL in fresh α-MEM medium with the same supplement. One hundred microliters of the cell suspension was seeded in each well of a 96-well plate, and precultured at 37° C. in 5% CO2-95% air. On the next day, the medium was replaced with α-MEM medium containing the sample dissolved therein with a supplement of 0.1% FBS. The cells were further cultured for 24 hours. The proliferative activity of the osteoblastic precursor cells was assessed by measuring the amount of BrdU uptake. The proliferation-promoting activity of the sample on the osteoblastic precursor cells was expressed as a value relative to the proliferation level of the cells in the absence of the sample, which was taken as 100.

male Crlj:WI rats [5] = assay: Calcification rate and morphometry in secondary cancellous bone, seven days (Example 6); format: in vivo; details: peptide 1, 10 or 100 mg/kg/day oral, hGH 500 μg/kg/day subcutaneous, versus control group, FIG. 18
Method: (§2) The synthetic peptide No. 1 or water for injection (control) was administered to male Crlj:WI rats at the age of four weeks by oral gavage using a gastric tube once a day for seven days (n=10 in each group). The dosage of the synthetic peptide was 1, 10 or 100 mg/kg/day. As a positive control, human growth hormone (hGH) (Norditropin, Japan Standard Commodity Classification Number: 872412) was subcutaneously administered at 500 μg/kg/day once a day for seven days. As fluorescent labels for the bone formation site, tetracycline (20 mg/kg) was subcutaneously administered on day 4 after the administration of the peptide or controls, and then calcein (10 mg/kg) was subcutaneously administered on day 6 after the administration of the peptide or controls. After the administration of the sample on day 7, the rats were kept under fasting conditions. […] Undecalcified specimens of the proximal tibia were prepared and photographed under a fluorescent microscope (BX-53, Olympus Corporation), and the bone morphology was measured using a morphometry system (Histometry RT digitizer, System Supply Co., Ltd.). The daily calcification rate (mineral apposition rate) was determined by measuring the distance between the tetracycline and calcein labels in the secondary cancellous bones and dividing the distance by the time interval between the administrations of the two fluorescent labels (two days).

male Crlj:WI rats [6] = assay: Osteogenesis-promoting effect on growth plate and secondary cancellous bone, 21 days (Example 5); format: in vivo; details: peptide 100 mg/kg/day oral, hGH 500 μg/kg/day subcutaneous, versus control group, FIG. 14
Method: The synthetic peptide No. 1 or water for injection (control) was administered to male Crlj:WI rats at the age of four weeks by oral gavage using a gastric tube once a day for 21 days. The dosage of the synthetic peptide was 100 mg/kg/day. As a positive control, human growth hormone (hGH) was subcutaneously administered at 500 μg/kg/day once a day for 21 days. As fluorescent labels for the bone formation site, tetracycline (20 mg/kg) was subcutaneously administered on day 18 after the administration of the peptide or controls, and then calcein (10 mg/kg) was subcutaneously administered on day 20 after the administration of the peptide or controls. After the administration of the sample on day 21, the rats were kept under fasting conditions. […] Undecalcified specimens of the proximal tibia were prepared and photographed under a fluorescent microscope (BX-53, Olympus Corporation), and the bone morphology was measured using a morphometry system (Histometry RT digitizer, System Supply Co., Ltd.) and an analysis software (CSS-840 cancellous bone morphometry version, System Supply Co., Ltd.). The longitudinal growth rate (Lo.G.R.) of the epiphyseal plate per day was determined by measuring the distance between the tetracycline and calcein labels and dividing the distance by the time interval between the administrations of the two fluorescent labels (two days).

male Crlj:WI rats [7] = assay: Bone growth-promoting effect on rats in the growth phase, seven days (Example 3); format: in vivo; details: hGH 500 μg/kg/day subcutaneous, versus control group
Method: as §2, with “longitudinal growth” for “daily calcification”, “(Lo.G.R.) of the growth plate per day” for “(mineral apposition rate)”, “labels” for “labels in the secondary cancellous bones”

[8] = Effect on body weight (Example 7); format: in vivo; details: rats, days 1, 3, 5 and 7; peptide 1, 10 or 100 mg/kg/day oral, hGH 500 μg/kg/day subcutaneous; FIG. 24
Method: The synthetic peptide No. 1 or water for injection (control) was administered to male Crlj:WI rats at the age of four weeks by oral gavage using a gastric tube once a day for seven days (n=10 in each group). The dosage of the synthetic peptide was 1, 10 or 100 mg/kg/day. As a positive control, human growth hormone (hGH) (Norditropin, Japan Standard Commodity Classification Number: 872412) was subcutaneously administered at 500 μg/kg/day once a day for seven days. The body weight was measured on days 1, 3, 5 and 7 of administration.

Row | Substance | concentration of IGF-1 in the serum ([1]; FIG. 32) | concentration of IGF-1 in the liver ([1]; FIG. 33) | proliferation-promoting activity on chondrogenic cells [2] | concentration of IGF-1 in the serum (time course) ([3]; single oral dose 10 mg/kg, at 45 and 60 minutes after administration, versus control, FIG. 27) | dose dependence of IGF-1 concentration in the serum and liver ([3]; single oral dose 0.1, 1 or 10 mg/kg, 45 minutes) | concentration of IGF-1 in the serum ([3]; single oral dose 0.1, 1 or 10 mg/kg, 45 minutes after administration, versus control group, FIG. 30) | concentration of IGF-1 in the liver ([3]; single oral dose 0.1, 1 or 10 mg/kg, 45 minutes after administration, versus control group, FIG. 31) | proliferation-promoting activity on osteoblastic precursor cells ([4]; MC3T3-E1, 24 hours, BrdU uptake, relative to absence of sample = 100, FIGS. 3 and 4) | concentration at which the proliferation-promoting effect is exhibited ([4]; MC3T3-E1, BrdU uptake) | proliferation-promoting activity on osteoblastic precursor cells, comparison between the peptides ([4]; MC3T3-E1, BrdU uptake, No. 2 versus No. 1) | calcification rate (mineral apposition rate) in the secondary cancellous bone (male Crlj:WI rats [5]) | longitudinal growth rate (Lo.G.R.) of the epiphyseal plate per day (male Crlj:WI rats [6]) | area of the hypertrophic cartilage layer (male Crlj:WI rats [7]; peptide 10 mg/kg/day oral, FIG. 9) | longitudinal growth rate (Lo.G.R.) of the growth plate per day (male Crlj:WI rats [7]; peptide 1, 10 or 100 mg/kg/day oral, FIG. 8) | change in the body weight [8]
1 | Val-Asn-Pro-Glu (VNPE) [synthetic peptide No. 2] | significantly higher | significantly higher | promoted the proliferation | significantly higher | increased in a dose-dependent manner | significantly higher | significantly higher | promoted the proliferation | sufficiently exhibited its effect at a low concentration | higher activity than the synthetic peptide No. 1 | – | – | – | – | –
2 | hGH: human growth hormone (hGH) (Norditropin), positive control, subcutaneously administered | – | – | – | – | – | – | – | – | – | – | significant increase | significant promotion of bone growth | significantly larger | significant promotion of bone growth | No significant change

Source: patent US11241475B2, “Preventive and/or therapeutic agent for osteogenesis imperfecta and other diseases” (Pharma Foods International Co., Ltd., priority 2016, dated 2022)
